Data from patent publication US9540389B2, “Antimicrobial potentiators” (priority 2013, dated 2017).

What was measured:
Assay in all cases: Time-kill assay (CIP and/or EPI)
Format in all cases: cell-based
S. enterica ATCC 14028 = details: Salmonella enterica; 25 μM EPI + CIP 0.5 or 1×MIC
Experimental: (§1) Panel (C): Bactericidal activity of CIP alone, 25 μM MBX2319 alone, or 25 μM MBX2319 combined with a bacteriostatic concentration of CIP against E. coli AB1157 and isogenic efflux defective mutants after 2 hours exposure. […] Panel (D): Bactericidal activity of CIP alone, 25 μM MBX2319 alone, 25 μM PAβN alone, and a bacteriostatic concentration of CIP combined with 25 μM MBX2319 or combined with 25 μM PAβN against the following organisms: a) E. coli AB1157, b) E. coli ATCC 25922, c) K. pneumoniae ATCC 700603, d) S. flexneri ATCC 12022, e) S. enterica ATCC 14028, f) E. aerogenes ATCC 13048.
(§2) • Strains and Reagents. The following strains were obtained from the Keio collection (Baba, et al.: Construction of Escherichia coli K-12 in-frame, single-gene knockout mutants: the Keio collection. In Mol Syst Biol, vol. 2, pp. 2006 0008, (2006)): JW0451 (ΔacrB::kan), JW5503 (ΔtolC::kan), JW3234 (ΔacrF::kan), JW2661 (ΔemrB::kan), JW0863 (ΔmacB::kan). The deletion mutations in each of these strains were transferred to AB1157 using P1 phage transduction (see Table 1). […] The minimal inhibitory concentration (MIC) of antibacterial agents and biocides were determined using the microbroth dilution method essentially as described in the CLSI protocol M7-A7 (CLSI: Method for dilution antimicrobial susceptibility testing for bacteria that grow aerobically; Approved standard-document M7-A7. In Clinical and Laboratory Standards Institute document M7-A7, Clinical and Laboratory Standards Institute, Wayne, Pa., (2006)), with the following exceptions. […] MIC assays were performed in triplicate and the geometric mean was calculated. […] Viability was monitored over 2-4 hours by making serial dilutions in saline and spotting 5 μl of each dilution onto the surface of an LB agar plate in triplicate. Colonies were counted after the plates were incubated at 37° C. for 16-18 hr, colony forming units (CFU) per ml were calculated, and the average and standard deviation for the three replicates was determined. […]

E. aerogenes ATCC 13048 = details: Enterobacter aerogenes; 25 μM EPI + CIP 0.5 or 1×MIC
Experimental: as §1, §2

[1] = system: K. pneumoniae ATCC 700603; details: Klebsiella pneumoniae; 25 μM EPI + CIP 0.5 or 1×MIC
Experimental: as §1, §2

Measured: decreased viability as compared to CIP alone

CC1(C)Cc2c(C#N)c(SCCc3ccccc3)nc(N3CCOCC3)c2CO1 [MBX2319]
100-1000 fold: S. enterica ATCC 14028 | E. aerogenes ATCC 13048 | [1]
